Patent US8716294B2, “Methods for treating inflammatory conditions” (Melior Discovery, Inc., priority 2006, dated 2014)

Columns and labels:
Type in all cases: in vivo
ICR:CD1 male mice [1] = experiment: Oxazolone contact hypersensitivity (contact dermatitis), ear redness and thickness; settings: all three doses (10, 30, 100 mg/kg)
Protocol: Contact Hypersensitivity (Contact Dermatitis). Contact hypersensitivity (CHS)^3 is a T cell-mediated cutaneous immune/inflammatory reaction to haptens. Oxazolone can be used to evoke a contact hypersensitivity reaction and produce an animal model of contact dermatitis. Tenilsetam was assessed for its ability to affect oxazolone mediated contact dermatitis reaction.
Materials and Methods. ICR:CD1 male mice (Harlan) 12 to 13 weeks of age were used for this study. Animals were kept on a 12 hr light dark cycle and fed ad libitum.
Oxazolone sensitization. Mice were exposed to 50 μL of 3% oxazolone (in 100% ethanol) via topical application to the skin of the abdomen. Additional exposure was via the 4 paws with a small amount of oxazolone.
Oxazolone challenge. On day 5, both ears of mice were exposed to 1% oxazolone (20 μL per ear; 10 μL/side of ear).
Analysis. On day 6, ears were scored for redness on a 0-3 scoring basis and were measured for thickness using a micrometer. These values were recorded, group values were averaged and statistical differences determined by ANOVA followed by a Mann-Whitney U-test (for visual score) or by Tukey's test (for ear thickness). A p value of less than 0.05 was used to indicate statistical significance.
For this study, there were 5 groups: vehicle, and tenilsetam at 3 dose levels: 10, 30 and 100 mg/kg. In addition, there was a dexamethasone group. […]

TNFα = experiment: Lipopolysaccharide general inflammation / septic shock model, TNFα by ELISA; settings: mice, LPS 0.25 mg/kg ip, blood 90 minutes after LPS; doses of 10 and 30 mg/kg, given 15 minutes prior to LPS; FIG. 3
Source text: Lipopolysaccharide General Inflammation. Bolus injection of lethal or sublethal doses of lipopolysaccharide (LPS; the major component of bacterial cell wall) results in the rapid and transient rise in tumor necrosis factor (TNFα) levels in serum in mammals. This animal model was developed to mirror certain aspects of septic shock in humans. This model is also an effective first-line general inflammation model and may be used to determine the anti-inflammatory potential of test compounds.
Materials and methods. Male ICR:CD1 mice (Harlan Sprague Dawley, Indianapolis, Ind.) 9 to 10 weeks of age were housed three per cage, kept on a standard 12 hr light cycle and fed western (high-fat) diet for 5.5 weeks for these studies. Mice were provided food and water ad libitum.
Lipopolysaccharide (heat killed E. coli 0127:B5; SigmaAldrich) was prepared in water at a concentration of 0.025 mg/ml. LPS was dosed at a volume of 10 ml/kg (ip) to produce a final dose of 0.25 mg/kg or 7.5 μg/mouse. […] Plasma was prepared from blood and TNFα levels determined by ELISA as described below.
Serum TNFα levels were determined using the OptEIA™ mouse TNFα ELISA kit (BD Biosciences) as per directions of the manufacturer. Data were averaged and analyzed by ANOVA followed by a post-hoc Tukey's test with a p value of less then 0.05 indicating a statistical difference. […]

ICR:CD1 male mice [2] = experiment: Delayed-type hypersensitivity (DTH), sheep red blood cell challenge, footpad swelling; settings: SRBC challenge into footpad, all three doses (10, 30, 100 mg/kg)
Protocol: In this study, tenilsetam was assessed for its ability to affect the delayed-type hypersensitivity (DTH) reactions. DTH reactions are antigen-specific cell-mediated immune responses that can mediate harmful (e.g., allergic dermatitis and autoimmunity) aspects of immune function. The immune reaction induced by the method described below is characterized by swelling at the site of challenge and by an infiltration of monocytes/macrophages and lymphocytes into the epidermis and dermis. This model for skin DTH reactions has been used widely to monitor cell-mediated immune responses in vivo. […] (dexamethasone), a steroid anti-inflammatory, reduces cell-mediated immune responses and was employed to pharmacologically validate the assay.
Materials and Methods. ICR:CD1 male mice (Harlan) 12 to 13 weeks of age were used for this study. Animals were kept on a 12 hr light dark cycle and fed ad libitum. On day 1 of the study, mice were injected IV with 1×10^6 of washed sheep red blood cells in a volume of 200 μL. Mice were administered tenilsetam on day 6. […]
On day 7, mice were re-administered drug as above. Footpad thickness of both the back right and back left foot pads was measured using a digital micrometer. […]
Data are expressed as the average±SEM. Data were averaged and analyzed by ANOVA followed by a post-hoc Tukey's test with a p value of less then 0.05 indicating a statistical difference. […]

In the case of O=C1NCCNC1c1cccs1 (racemic) [Tenilsetam, (+/−)-3-(2-thienyl)-2-piperazinone], the “ear swelling after oxazolone challenge, visual scoring” value (ICR:CD1 male mice [1]; day 6, 0-3 redness score, FIG. 2A) is reported as “significantly decreased”, the “ear swelling after oxazolone challenge, ear thickness measurements” value (ICR:CD1 male mice [1]; day 6, micrometer, FIG. 2B) is reported as “significantly decreased” and the TNFα levels (TNFα) is reported as “decreased”. For the same compound, the “foot swelling by visual examination” value (ICR:CD1 male mice [2]) was “significantly decreased” and the “foot swelling as measured using a micrometer” value (ICR:CD1 male mice [2]; FIG. 1) was “significantly decreased”.
